This note sets out measurements from PubChem BioAssay AID200 (DTP/NCI, 2004).

Where “and” joins values, the source holds several entries; their conditions need not be identical. Equal entries are not always repeated. Inconclusive results and toxic doses are left out. Where a SMILES comes first, the peptide text is derived from it. Bridges are numbered along the chain shown (N, C = ends).

The subject of the experiment is B6C3F1 mice, B16 melanoma ip, median survival T/C. In words: NCI In Vivo Anticancer Drug Screen. Data for tumor model B16 Melanoma (intraperitoneal) in B6C3F1 mice. The conditions noted are these: endpoint: median survival time, schedule: Q01DX009 (ip), higher = longer survival. The method, boiled down: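 Values are T/C ratios: the measurement in treated animals divided by that in vehicle-treated controls, using survival or tumor size in mice carrying transplantable tumors.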

Setting [1] is: dose: 3.12 mg/kg/injection, vehicle: saline.
The mark [2] stands for this setting: dose: 6.25 mg/kg/injection, vehicle: saline.
[3] abbreviates: dose: 25.0 mg/kg/injection, vehicle: saline.
Where [4] appears, read: dose: 50.0 mg/kg/injection, vehicle: saline.
[5] abbreviates: dose: 25.0 mg/kg/injection, vehicle: Klucel (hydroxypropylcellulose) (HPC).
Where [6] appears, read: dose: 50.0 mg/kg/injection, vehicle: Klucel (hydroxypropylcellulose) (HPC).
Setting [7] is: dose: 100.0 mg/kg/injection, vehicle: Klucel (hydroxypropylcellulose) (HPC).
Where [8] appears, read: dose: 0.39 mg/kg/injection, vehicle: Klucel (hydroxypropylcellulose) (HPC).
The mark [9] stands for this setting: dose: 12.5 mg/kg/injection, vehicle: Klucel (hydroxypropylcellulose) (HPC).
[10] abbreviates: dose: 12.5 mg/kg/injection, vehicle: saline.
The mark [11] stands for this setting: dose: 12.5 mg/kg/injection, vehicle: saline with Tween-80.
The mark [12] stands for this setting: dose: 25.0 mg/kg/injection, vehicle: saline with Tween-80.
Setting [13] is: dose: 50.0 mg/kg/injection, vehicle: saline with Tween-80.

Regarding `CCCCNC(C)[C@]1(O)Cc2c(O)c3c(c(O)c2[C@@H](OC2CC(N)C(O)C(C)O2)C1)C(=O)c1c(OC)cccc1C3=O` (stereo not given in full), the T/C (dose: 0.75 mg/kg/injection, vehicle: saline) was 162 % of control and 163 % of control; the T/C (dose: 1.5 mg/kg/injection, vehicle: saline) is 211 % of control and 232 % of control; the T/C (dose: 3.0 mg/kg/injection, vehicle: saline) is 235 % of control and 333 % of control; the T/C (dose: 6.0 mg/kg/injection, vehicle: saline) was 229 % of control and 95 % of control.

As to `CCC(C(=O)O)C(=O)O.[NH2-].[NH2-].[Pt+2]`, the T/C is 117 % of control (dose: 1.56 mg/kg/injection, vehicle: saline); 102 % of control under setting [1]; 102 % of control under setting [2]; 154 % of control under setting [3]; 102 % of control under setting [4].

For `CN1c2c(nc(N)[nH]c2=O)NCC1CCNc1ccc(C(=O)NC(CCC(=O)O)C(=O)O)cc1` (stereo not given), the T/C is 105 % of control (dose: 50.0 mg/kg/injection, vehicle: sodium bicarbonate) and 114 % of control (dose: 100.0 mg/kg/injection, vehicle: sodium bicarbonate).

On to `C=C1C(=O)OC2/C=C(\C)CC/C=C(/C)CC(OC(=O)/C(=C/CO)CO)C12` (stereo not given), for which the T/C was 106 % of control (dose: 10.0 mg/kg/injection, vehicle: Klucel (hydroxypropylcellulose) (HPC)); 98 % of control (dose: 20.0 mg/kg/injection, vehicle: Klucel (hydroxypropylcellulose) (HPC)); 96 % of control (dose: 40.0 mg/kg/injection, vehicle: Klucel (hydroxypropylcellulose) (HPC)).

With `C=C1C(O)C2(O)OCC34C(CC5C(C)=CC(=O)C(O)C5(C)C23)OC(=O)C(OC(=O)C(C)(O)CC)C14` (stereo not given), the T/C is 89 % of control (dose: 0.13 mg/kg/injection, vehicle: saline + alcohol); 110 % of control and 101 % of control (dose: 0.25 mg/kg/injection, vehicle: saline + alcohol); 103 % of control (dose: 0.5 mg/kg/injection, vehicle: saline + alcohol); 115 % of control (dose: 1.0 mg/kg/injection, vehicle: saline + alcohol).

As to `C=Cc1cc(OC)c2c(c1)c(=O)oc1c2cc(OC)c2c(O)ccc(C3OC(C)C(O)C(C)(O)C3O)c21` (stereo not given), the T/C is, setting by setting: (dose: 2.5 mg/kg/injection, vehicle: DMSO) 120 % of control; (dose: 5.0 mg/kg/injection, vehicle: DMSO) 124 % of control and 103 % of control; (dose: 20.0 mg/kg/injection, vehicle: DMSO) 158 % of control; (dose: 40.0 mg/kg/injection, vehicle: DMSO) 169 % of control and 196 % of control; (dose: 80.0 mg/kg/injection, vehicle: DMSO) 207 % of control.

Turning to `CCCC(NC(=O)OCc1ccccc1)C(=O)NC(C)C(=O)O` (stereo not given), the T/C is 101 % of control under setting [5], 104 % of control under setting [6] and 102 % of control under setting [7].

For the molecule `N=C(N)c1ccc(N=Nc2c(O)ccc3cc(O)ccc23)cc1`, the T/C is, setting by setting: (dose: 0.19 mg/kg/injection, vehicle: Klucel (hydroxypropylcellulose) (HPC)) 114 % of control; under setting [8], 99 % of control; (dose: 0.78 mg/kg/injection, vehicle: Klucel (hydroxypropylcellulose) (HPC)) 92 % of control; (dose: 1.56 mg/kg/injection, vehicle: Klucel (hydroxypropylcellulose) (HPC)) 92 % of control; (dose: 6.25 mg/kg/injection, vehicle: Klucel (hydroxypropylcellulose) (HPC)) 97 % of control; under setting [9], 97 % of control. Moreover, the T/C runs as follows: under setting [5], 87 % of control; under setting [6], 89 % of control.

Regarding `COC1C(/C=C/C(C)=O)OC2OC(C)(C)OC21` (stereo not given), the T/C runs as follows: under setting [2], 92 % of control and 94 % of control and 100 % of control; under setting [10], 93 % of control and 97 % of control and 98 % of control; under setting [3], 91 % of control and 96 % of control and 101 % of control; under setting [4], 108 % of control and 87 % of control and 101 % of control; (dose: 100.0 mg/kg/injection, vehicle: saline) 93 % of control and 103 % of control and 104 % of control; (dose: 200.0 mg/kg/injection, vehicle: saline) 112 % of control.

Consider `O=c1[nH]c2c(ccc3cnccc32)c2c1CCC2`, for which the T/C by setting is: under setting [1], 97 % of control; under setting [2], 113 % of control; under setting [10], 119 % of control.

Turning to `O=S(=O)(O)O`, the T/C runs as follows: (dose: 30.0 mg/kg/injection, vehicle: water) 121 % of control and 91 % of control; (dose: 44.0 mg/kg/injection, vehicle: water) 108 % of control and 99 % of control; (dose: 67.0 mg/kg/injection, vehicle: water) 95 % of control and 102 % of control; (dose: 100.0 mg/kg/injection, vehicle: water) 97 % of control and 103 % of control.

Consider `Nc1nc(N)c2cc(CNc3ccc(C(=O)NC(CC(=O)O)CC(=O)O)cc3)ccc2n1`, for which the T/C by setting is: (dose: 0.04 mg/kg/injection, vehicle: Klucel (hydroxypropylcellulose) (HPC)) 87 % of control; (dose: 0.09 mg/kg/injection, vehicle: Klucel (hydroxypropylcellulose) (HPC)) 89 % of control; under setting [8], 87 % of control; (dose: 6.25 mg/kg/injection, vehicle: saline with Tween-80) 110 % of control; under setting [11], 90 % of control; under setting [12], 95 % of control. Further, the T/C under setting [13] is 87 % of control.

Consider `CCC(C)C1NC(=O)C(CC(C)C)NC(=O)C(C(C)C)NC(=O)C2CSSCC(NC1=O)C(=O)N2` (stereo not given) (cyclo(CCVLI); disulfide 1-2; configuration not given here), for which the T/C runs as follows: (dose: 31.25 micrograms/kg/injection, vehicle: Klucel (hydroxypropylcellulose) (HPC)) 105 % of control; (dose: 62.5 micrograms/kg/injection, vehicle: Klucel (hydroxypropylcellulose) (HPC)) 105 % of control; (dose: 125.0 micrograms/kg/injection, vehicle: Klucel (hydroxypropylcellulose) (HPC)) 96 % of control; (dose: 500.0 micrograms/kg/injection, vehicle: Klucel (hydroxypropylcellulose) (HPC)) 94 % of control; (dose: 1000.0 micrograms/kg/injection, vehicle: Klucel (hydroxypropylcellulose) (HPC)) 95 % of control.

For `CC(=O)c1ccc([NH-])c([NH-])c1.[Cl][Pt+2][Cl]`, the T/C (dose: 2.5 mg/kg/injection, vehicle: distilled water + Tween-80) is 116 % of control; the T/C (dose: 5.0 mg/kg/injection, vehicle: distilled water + Tween-80) is 116 % of control; the T/C (dose: 10.0 mg/kg/injection, vehicle: distilled water + Tween-80) was 114 % of control and 124 % of control; the T/C (dose: 20.0 mg/kg/injection, vehicle: distilled water + Tween-80) is 114 % of control; the T/C (dose: 40.0 mg/kg/injection, vehicle: distilled water + Tween-80) was 119 % of control.

Turning to `S=C(Nc1ccc(Cl)c(Cl)c1)N1c2ccccc2-n2cccc2C1c1cccnc1` (stereo not given), the T/C was 90 % of control and 98 % of control and 102 % of control under setting [9]; 99 % of control under setting [11]; 91 % of control and 94 % of control and 98 % of control under setting [5]; 102 % of control under setting [12]; 90 % of control and 104 % of control and 107 % of control under setting [6]; 99 % of control under setting [13]. The T/C is 88 % of control and 91 % of control and 97 % of control under setting [7]; 107 % of control (dose: 100.0 mg/kg/injection, vehicle: saline with Tween-80); 114 % of control and 90 % of control (2×) (dose: 200.0 mg/kg/injection, vehicle: Klucel (hydroxypropylcellulose) (HPC)); 102 % of control (dose: 200.0 mg/kg/injection, vehicle: saline with Tween-80); 91 % of control (dose: 400.0 mg/kg/injection, vehicle: Klucel (hydroxypropylcellulose) (HPC)).
